Earlier results as cited in patent publication US20060122162A1, “Methods of using temozolomide formulation intrathecally in the treatment of cancers” (Schering Corporation, priority 2004, published 2006).

For Cn1nnc2c(C(N)=O)ncn2c1=O [Temozolomide, 3,4-dihydro-3-methyl-4-oxoimidazo-[5,1-d]-1,2,3,4-tetrazin-8-carboximide], the “patients in whom clinical responses were achieved” value (advanced melanoma; patients having advanced melanoma, Newlands et al., Br J Cancer 1992) is given as 17%, the “patients in whom a clinical response was achieved” value (advanced melanoma; patients with advanced melanoma, Bleehan et al., Journal of Clinical Oncology 1995) is given as 21% and the solubility in water is given as “water-insoluble”.
